Data reported in patent US8124840B2, “Regulating metabolism by modifying the level of trehalose-6-phosphate” (Syngenta Mogen B.V., priority 1996, dated 2012).

Legend:
hexokinase = assay: Hexokinase assay on mouse hybridoma cell extract with/without trehalose-6-phosphate; format: biochemical; details: for V2 (ODU/min): hexokinase rate with T6P
Protocol: Hexokinase activity was measured in an assay containing 0.1 M Hepes-KOH pH 7.0, 4 mM MgCl2, 5 mM ATP, 0.2 mM NADP^+, 10 U/ml Creatine Phosphate Kinase (dissolved in 50% glycerol, 0.1% BSA, 50 mM Hepes pH 7.0), 3.5 mM Creatine Phosphate, 7 U/ml Glucose-6-Phosphate Dehydrogenase and 2 mM Glucose by measuring the increase in OD at 340 nm at 25° C.
When 2 mM Fructose was used instead of glucose as substrate for the hexokinase reaction, 3.8 U/ml Phosphoglucose Isomerase was included. Alternatively, a hexokinase assay as described by Gancedo et al. (1977) J. Biol. Chem. 252, 4443 was used.
A hexokinase assay was performed using glucose or fructose as substrate under conditions as described by Gancedo et al. (see above). Mouse hybridoma cells were subjected to osmotic shock by exposing a cell pellet to 20% sucrose, followed by distilled water. This crude protein extract was used in the hexokinase assay (50 μl) extract corresponding to ca. 200 μg protein).

potato microtubers = assay: Trehalose accumulation in potato microtubers induced on medium with Validamycin A; format: in vivo, Solanum tuberosum cv. Kardal; details: for Trehalose (% fresh weight): +Validamycin A 10^−3 M
Protocol: Stem segments of in vitro potato plants harbouring an auxiliary meristem were transferred to micro-tuber inducing medium. Micro-tuber inducing medium contains 1 X MS-salts supplemented with R3 vitamins, 0.5 g/l MES (final pH=5.8, adjusted with KOH) and solidified with 8 g/l Daichin agar, 60 g/l sucrose and 2.5 mg/l kinetin. After 3 to 5 weeks of growth in the dark at 24° C., micro-tubers were formed.
(§1) Validamycin A was isolated from Solacol, a commercial agricultural formulation (Takeda Chem. Indust., Tokyo) as described by Kendall et al. (1990) Phytochemistry 29, 2525. The procedure involves ion-exchange chromatography (QAE-Sephadex A-25 (Pharmacia), bed vol. 10 ml, equilibration buffer 0.2 mM Na-Pi pH 7) from a 3% agricultural formulation of Solacol. Loading 1 ml of Solacol on the column and eluting with water in 7 fractions, practically all Validamycin was recovered in fraction 4. Based on a 100% recovery, using this procedure, the concentration of Validamycin A was adjusted to 1.10^−3 M in MS-medium, for use in trehalose accumulation tests. Alternatively, Validamycin A and B may be purified directly from Streptomyces hygroscopicus var. limoneus, as described by Iwasa et al. (1971) J. Antibiot. 24, 119, the content of which is incorporated herein by reference.
Carbohydrates were determined quantitatively by anion exchange chromatography with pulsed electrochemical detection. Extracts were prepared by extracting homogenized frozen material with 80% EtOH. After extraction for 15 minutes at room temperature, the soluble fraction is evaporated and dissolved in distilled water. Samples (25 μl) were analyzed on a Dionex DX-300 liquid chromatograph equipped with a 4×250 mm Dionex 35391 carbopac PA-1 column and a 4×50 mm Dionex 43096 carbopac PA-1 precolumn. Elution was with 100 mM NaOH at 1 ml/min followed by a NaAc gradient. Sugars were detected with a pulsed electrochemical detector (Dionex, PED). Commercially available carbohydrates (Sigma) were used as a standard.
Potato Solanum tuberosum cv. […] The presence of small amounts of trehalose in wild-type plants indicates the presence of a functional trehalose biosynthetic pathway.
Evidence for the presence of a trehalose biosynthesis pathway in tobacco was obtained by culturing wild-type plants in the presence of 10^−3M of the trehalase inhibitor Validamycin A. The treated plants accumulated very small amounts of trehalose, up to 0.0021% (fw). Trehalose accumulation was never detected in any control plants cultured without inhibitor. Similar data were obtained with wild-type microtubers cultured in the presence of Validamycin A. Ten out of seventeen lines accumulated on average 0.001% trehalose (fw)/(Table 4).

wild-type tobacco plants = assay: Trehalose accumulation in wild-type tobacco plants cultured with Validamycin A; format: in vivo; details: wild-type tobacco plants cultured with 10^−3M Validamycin A
Protocol: as §1, with “1.10^-3” for “1.10^−3”, “reference. Carbohydrates were determined quantitatively by anion exchange chromatography with pulsed electrochemical detection. […] Samples (25 μl) were analyzed on a Dionex DX-300 liquid chromatograph equipped with a 4×250 mm Dionex 35391 carbopac PA-1 column and a 4×50 mm Dionex 43096 carbopac PA-1 precolumn. […] Sugars were detected with a pulsed electrochemical detector (Dionex, PED). […] Trehalose accumulation was never detected in any control plants cultured without inhibitor. […]” for “reference.”

[1] = test system: trehalases from various sources; details: cited from earlier work
α- or β-glycohydrolase = details: except for trehalase; cited from earlier work
[2] = substrate Fructose 20 mM, T6P 0.23
[3] = substrate Fructose 20 mM, T6P 0.43
[4] = substrate Fructose 20 mM, T6P 0.83
[5] = substrate Fructose 20 mM, T6P 1.67
[6] = substrate Glucose 2 mM, T6P 0.83
[7] = substrate Glucose 20 mM, T6P 0.83
[8] = substrate Glucose 100 mM, T6P 0.83

With `O=P(O)(O)OC[C@H]1O[C@H](O[C@H]2O[C@H](CO)[C@@H](O)[C@H](O)[C@H]2O)[C@H](O)[C@@H](O)[C@@H]1O` [T-6-P, trehalose-6-phosphate] the “Hexokinase activity in mouse cell extracts” value (hexokinase; crude extract of mouse hybridoma cells) was “is inhibited”, the “V2 (ODU/min)” value (hexokinase; [2]) was 0.0205 ODU/min and the “V2 (ODU/min)” value (hexokinase; [3]) was 0.0197 ODU/min. The “V2 (ODU/min)” value (hexokinase; [4]) was 0.0151 ODU/min, the “V2 (ODU/min)” value (hexokinase; [5]) was 0.0133 ODU/min and the “V2 (ODU/min)” value (hexokinase; [6]) was 0.0133 ODU/min. The “V2 (ODU/min)” value (hexokinase; [7]) was 0.0141 ODU/min, the “V2 (ODU/min)” value (hexokinase; [8]) was 0.0125 ODU/min and the “Efficiency of hexokinase inhibition, glucose versus fructose as substrate” value (hexokinase; mouse cell extracts) was “No difference”. For the same compound, the “Inhibition (%)” value (hexokinase; [2]) was 1%, the “Inhibition (%)” value (hexokinase; [3]) was 26% and the “Inhibition (%)” value (hexokinase; [4]) was 35%. For the same compound, the “Inhibition (%)” value (hexokinase; [5]) was 46%, the “Inhibition (%)” value (hexokinase; [6]) was 35% and the “Inhibition (%)” value (hexokinase; [7]) was 35%. For the same compound, the “Inhibition (%)” value (hexokinase; [8]) was 34%.

For `OCC1=C[C@@H](N[C@H]2C[C@H](CO)[C@@H](O[C@H]3O[C@@H](CO)[C@H](O)[C@@H](O)[C@@H]3O)[C@H](O)[C@H]2O)[C@H](O)[C@@H](O)[C@@H]1O` [Validamycin A], the “Trehalose (% fresh weight)” value (potato microtubers; microtubers of pMOG845 line 845-2) was 0.016 % fresh weight, the “Trehalose (% fresh weight)” value (potato microtubers; microtubers of pMOG845 line 845-8) was 0.051 % fresh weight and the “Trehalose (% fresh weight)” value (potato microtubers; microtubers of pMOG845 line 845-11) was 0.015 % fresh weight. The “Trehalose (% fresh weight)” value (potato microtubers; microtubers of pMOG845 line 845-13) was 0.011 % fresh weight, the “Trehalose (% fresh weight)” value (potato microtubers; microtubers of pMOG845 line 845-22) was 0.112 % fresh weight and the “Trehalose (% fresh weight)” value (potato microtubers; microtubers of pMOG845 line 845-25) was 0.002 % fresh weight. For the same compound, the “Trehalose (% fresh weight)” value (potato microtubers; microtubers of pMOG845 line 845-28) was 0.109 % fresh weight, the “Trehalose (% fresh weight)” value (potato microtubers; microtubers of wild type Kardal) was 0.001 % fresh weight and the “Trehalose level in microtubers versus medium without Validamycin A” value (potato microtubers; transgenic (pMOG845) and wild-type microtubers, 10^−3 M Validamycin A) was “elevated levels of trehalose”. For the same compound, the “Trehalose accumulation, average” value (potato microtubers; wild-type microtubers cultured with Validamycin A, ten out of seventeen lines) was 0.001 % trehalose (fw), the Trehalose accumulation (wild-type tobacco plants) was “up to 0.0021 % (fw)” and the IC50 [1] was 0.1 to 1000 nM. The “Inhibition of α- or β-glycohydrolase activity” value (α- or β-glycohydrolase) was “does not significantly inhibit”.
